# Data taken from patent US20020026053A1, “Novel 3-(substituted) -2- indolinones compounds and use thereof as inhibitors of protein kinase activity” (priority 1997, published 2002).
# Biological target: T1, Met receptor (EGFR/Met chimeric cells, EMR) (Homo sapiens, UniProt P08581)
# T1 construct: expressed in transfected cells; the other entry of the earlier key: EGFR (P00533, Epidermal growth factor receptor)
# Experiment: Met Autophosphorylation Assay
# Type: biochemical
# Details: protocol P.130
# In short: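 Met phosphorylation was measured by capture ELISA. Lysates (90 μg/100 μl, HNTG plus 1 mM PMSF) from transiently transfected EGFR/Met chimera (EMR) cells were bound for 60 min at room temperature to wells holding rabbit anti-Met (C-28) on goat anti-rabbit coat. Phosphotyrosine was the read-out.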
# T1 sequence (P08581 with tags, fused parts or gaps): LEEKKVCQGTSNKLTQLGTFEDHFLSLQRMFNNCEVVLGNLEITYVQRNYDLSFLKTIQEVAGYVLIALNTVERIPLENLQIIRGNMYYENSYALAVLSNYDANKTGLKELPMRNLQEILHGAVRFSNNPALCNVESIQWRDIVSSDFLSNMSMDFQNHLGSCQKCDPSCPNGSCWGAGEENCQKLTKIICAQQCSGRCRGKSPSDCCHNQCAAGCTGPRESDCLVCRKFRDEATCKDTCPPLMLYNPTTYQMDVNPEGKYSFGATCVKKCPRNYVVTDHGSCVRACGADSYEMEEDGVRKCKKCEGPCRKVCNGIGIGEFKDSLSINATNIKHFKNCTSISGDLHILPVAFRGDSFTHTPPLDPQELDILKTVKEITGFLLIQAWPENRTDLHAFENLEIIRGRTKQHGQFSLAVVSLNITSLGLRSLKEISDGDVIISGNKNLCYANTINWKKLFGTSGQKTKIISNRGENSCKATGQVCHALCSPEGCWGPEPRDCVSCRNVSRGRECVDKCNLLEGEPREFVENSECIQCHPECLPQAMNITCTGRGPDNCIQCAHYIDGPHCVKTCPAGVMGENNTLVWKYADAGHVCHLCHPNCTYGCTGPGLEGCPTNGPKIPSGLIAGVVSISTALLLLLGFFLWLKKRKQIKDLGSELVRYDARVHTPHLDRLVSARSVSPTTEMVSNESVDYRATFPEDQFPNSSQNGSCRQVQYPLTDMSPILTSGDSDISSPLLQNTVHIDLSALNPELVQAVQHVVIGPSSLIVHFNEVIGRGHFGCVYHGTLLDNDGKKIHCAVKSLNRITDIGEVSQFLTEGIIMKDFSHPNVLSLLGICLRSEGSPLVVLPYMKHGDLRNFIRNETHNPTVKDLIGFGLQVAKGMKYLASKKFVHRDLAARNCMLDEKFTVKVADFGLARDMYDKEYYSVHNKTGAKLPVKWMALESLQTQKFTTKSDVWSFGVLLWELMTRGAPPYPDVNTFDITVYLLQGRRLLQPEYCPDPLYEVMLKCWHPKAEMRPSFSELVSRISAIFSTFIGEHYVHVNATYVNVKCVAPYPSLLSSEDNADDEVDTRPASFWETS
row,SMILES,Met Kinase % Inhibition (P.130)
1,O=C1Nc2ccc(S(=O)(=O)Nc3ccc(C(F)(F)F)cc3)cc2C1=Cc1ccc2ccccc2c1 [10737/E08],61.9%
2,Cc1c(Br)cc(Br)c2c1C(=Cc1cccc(F)c1)C(=O)N2 [10736/H07],31.0%
3,Cc1c(Br)ccc2c1C(=Cc1cc(F)ccc1F)C(=O)N2 [10737/C04],82.0%
4,Cc1ccc(C)c(C=C2C(=O)Nc3ccc(S(=O)(=O)N4CCOCC4)cc32)c1 [10737/F07],33.3%
5,CNS(=O)(=O)c1ccc2c(c1)C(=Cc1cc(C)ccc1C)C(=O)N2 [10737/D07],37.0%
6,CNS(=O)(=O)c1ccc2c(c1)C(=Cc1cccc(F)c1F)C(=O)N2 [10737/D05],41.8%
7,O=C1Nc2c(Br)cc(Br)cc2C1=Cc1ccc2ccccc2c1 [10737/A08],28.3%
8,O=C1Nc2ccc(CCCl)cc2C1=Cc1ccc(Oc2ccccc2)cc1 [10737/G09],37.9%
9,Cc1ccc(C)c(C=C2C(=O)Nc3ccc(I)cc32)c1 [10737/B07],82.5%
10,Cc1c(Br)cc(Br)c2c1C(=Cc1cccc(F)c1F)C(=O)N2 [10737/H05],76.5%
11,Cc1c(Br)ccc2c1C(=Cc1cccc(Oc3ccc(C(C)(C)C)cc3)c1)C(=O)N2 [10737/C10],60.0%
12,CNS(=O)(=O)c1ccc2c(c1)C(=Cc1cccc(Oc3ccc(C(C)(C)C)cc3)c1)C(=O)N2 [10737/D10],24.8%
13,CCOc1ccc(C=C2C(=O)Nc3ccc(I)cc32)cc1 [10737/B02],85.0%
14,Cc1c(Br)cc(Br)c2c1C(=Cc1ccccc1F)C(=O)N2 [10736/H08],33.4%
15,CNS(=O)(=O)c1ccc2c(c1)C(=Cc1ccc(OC)c(F)c1)C(=O)N2 [10737/D06],37.4%
16,CNS(=O)(=O)c1ccc2c(c1)C(=Cc1ccc3ccccc3c1)C(=O)N2 [10737/D08],42.0%
17,O=C1Nc2ccc(CCCl)cc2C1=Cc1cccc(F)c1F [10737/G05],53.2%
18,CCOc1ccc(C=C2C(=O)Nc3ccc(S(=O)(=O)NC)cc32)cc1 [10737/D02],27.8%
19,Cc1ccc(C)c(C=C2C(=O)Nc3ccc(S(=O)(=O)Nc4ccc(C(F)(F)F)cc4)cc32)c1 [10737/E07],43.1%
20,CCOc1ccc(C=C2C(=O)Nc3c(Br)cc(Br)c(C)c32)cc1 [10737/H02],42.9%
21,O=C1Nc2ccc(S(=O)(=O)N3CCOCC3)cc2C1=Cc1cccc(Oc2cccc(C(F)(F)F)c2)c1 [10737/F11],75.6%
22,CNS(=O)(=O)c1ccc2c(c1)C(=Cc1cc(F)ccc1F)C(=O)N2 [10737/D04],33.5%
23,CC(C)(C)c1ccc(Oc2cccc(C=C3C(=O)Nc4ccc(S(=O)(=O)N5CCOCC5)cc43)c2)cc1 [10737/F10],78.6%
24,Cc1ccc(C=C2C(=O)Nc3ccc(I)cc32)c(C)c1 [10737/B03],86.3%
25,Cc1ccc(C=C2C(=O)Nc3c(Br)cc(Br)cc32)c(C)c1 [10737/A03],58.9%
26,COc1ccc(C=C2C(=O)Nc3ccc(I)cc32)cc1F [10737/B06],84.7%

row,SMILES,Met Kinase % Inhibition (P.130)
1,Cc1c(Br)cc(Br)c2c1C(=Cc1ccccc1Cl)C(=O)N2 [10736/H11],41.5%
2,Cc1ccc(C=C2C(=O)Nc3ccc(Br)c(C)c32)c(C)c1 [10737/C03],52.5%
3,Cc1c(Br)ccc2c1C(=Cc1ccc(Oc3ccccc3)cc1)C(=O)N2 [10737/C09],27.6%
4,CC(C)(C)c1ccc(Oc2cccc(C=C3C(=O)Nc4c(Br)cc(Br)cc43)c2)cc1 [10737/A10],15.5%
5,O=C1Nc2c(Br)cc(Br)cc2C1=Cc1cccc(Oc2cccc(C(F)(F)F)c2)c1 [10737/A11],25.3%
6,O=C1Nc2ccc(CCCl)cc2C1=Cc1cccc(Oc2cccc(C(F)(F)F)c2)c1 [10737/G11],35.1%
7,CNS(=O)(=O)c1ccc2c(c1)C(=Cc1cccc(Oc3cccc(C(F)(F)F)c3)c1)C(=O)N2 [10737/D11],43.4%
8,O=C1Nc2ccc(S(=O)(=O)N3CCOCC3)cc2C1=Cc1cc(F)ccc1F [10737/F04],62.8%
9,COc1ccc(C=C2C(=O)Nc3c(Br)cc(Br)c(C)c32)cc1F [10737/H06],28.7%
10,CNS(=O)(=O)c1ccc2c(c1)C(=Cc1ccc(C)cc1C)C(=O)N2 [10737/D03],38.6%
11,Cc1ccc(C)c(C=C2C(=O)Nc3ccc(CCCl)cc32)c1 [10737/G07],41.8%
12,Cc1ccc(C=C2C(=O)Nc3ccc(S(=O)(=O)Nc4ccc(C(F)(F)F)cc4)cc32)c(C)c1 [10737/E03],13.4%
13,O=C1Nc2ccc(S(=O)(=O)Nc3ccc(C(F)(F)F)cc3)cc2C1=Cc1cc(F)ccc1F [10737/E04],79.3%
14,COc1ccc(C=C2C(=O)Nc3ccc(S(=O)(=O)N4CCOCC4)cc32)cc1F [10737/F06],62.8%
15,CC(C)(C)c1ccc(Oc2cccc(C=C3C(=O)Nc4ccc(CCCl)cc43)c2)cc1 [10737/G10],22.8%
16,O=C1Nc2c(Br)cc(Br)cc2C1=Cc1ccc(Oc2ccccc2)cc1 [10737/A09],47.9%
17,COc1cccc(C=C2C(=O)Nc3c(Br)cc(Br)c(C)c32)c1 [10736/H10],32.1%
18,COc1ccc(C=C2C(=O)Nc3ccc(CCCl)cc32)cc1F [10737/G06],50.7%
19,CC(C)(C)c1ccc(Oc2cccc(C=C3C(=O)Nc4ccc(S(=O)(=O)Nc5ccc(C(F)(F)F)cc5)cc43)c2)cc1 [10737/E10],49.3%
20,Cc1ccc(C=C2C(=O)Nc3ccc(S(=O)(=O)N4CCOCC4)cc32)c(C)c1 [10737/F03],28.0%
21,O=C1Nc2ccc(I)cc2C1=Cc1cc(F)ccc1F [10737/B04],88.9%
22,O=C1Nc2ccc(CCCl)cc2C1=Cc1cc(F)ccc1F [10737/G04],49.1%
23,Cc1c(Br)ccc2c1C(=Cc1ccc3ccccc3c1)C(=O)N2 [10737/C08],54.1%
24,O=C1Nc2ccc(S(=O)(=O)Nc3ccc(C(F)(F)F)cc3)cc2C1=Cc1cccc(F)c1F [10737/E05],80.9%
25,Cc1ccc(C=C2C(=O)Nc3c(Br)cc(Br)c(C)c32)c(C)c1 [10737/H03],46.1%
26,Cc1c(Br)ccc2c1C(=Cc1cccc(Oc3cccc(C(F)(F)F)c3)c1)C(=O)N2 [10737/C11],34.0%

row,SMILES,Met Kinase % Inhibition (P.130)
1,CNS(=O)(=O)c1ccc2c(c1)C(=Cc1ccc(Oc3ccccc3)cc1)C(=O)N2 [10737/D09],36.0%
2,CCOc1ccc(C=C2C(=O)Nc3ccc(Br)c(C)c32)cc1 [10737/C02],30.6%
3,O=C1Nc2ccc(S(=O)(=O)Nc3ccc(C(F)(F)F)cc3)cc2C1=Cc1ccc(Oc2ccccc2)cc1 [10737/E09],21.2%
4,CCOc1ccc(C=C2C(=O)Nc3ccc(CCCl)cc32)cc1 [10737/G02],32.2%
5,CCOc1ccc(C=C2C(=O)Nc3ccc(S(=O)(=O)N4CCOCC4)cc32)cc1 [10737/F02],67.4%
6,COc1ccc(C=C2C(=O)Nc3ccc(S(=O)(=O)Nc4ccc(C(F)(F)F)cc4)cc32)cc1F [10737/E06],57.8%
7,Cc1ccc(C)c(C=C2C(=O)Nc3ccc(Br)c(C)c32)c1 [10737/C07],57.5%
8,COc1ccc(C=C2C(=O)Nc3ccc(Br)c(C)c32)cc1F [10737/C06],38.6%
9,O=C1Nc2c(Br)cc(Br)cc2C1=Cc1cc(F)ccc1F [10737/A04],63.5%
10,O=C1Nc2ccc(CCCl)cc2C1=Cc1ccc2ccccc2c1 [10737/G08],31.2%
11,O=C1Nc2ccc(I)cc2C1=Cc1ccc2ccccc2c1 [10737/B08],84.1%
12,O=C1Nc2ccc(S(=O)(=O)N3CCOCC3)cc2C1=Cc1cccc(F)c1F [10737/F05],67.1%
13,O=C1Nc2ccc(I)cc2C1=Cc1cccc(F)c1F [10737/B05],89.5%
14,CCc1ccc(C=C2C(=O)Nc3c(Br)cc(Br)c(C)c32)cc1 [10736/H09],32.1%
15,COc1ccc(C=C2C(=O)Nc3c(Br)cc(Br)cc32)cc1F [10737/A06],57.1%
16,O=C1Nc2c(Br)cc(Br)cc2C1=Cc1cccc(F)c1F [10737/A05],58.9%
17,O=C1Nc2ccc(S(=O)(=O)N3CCOCC3)cc2C1=Cc1ccc2ccccc2c1 [10737/F08],76.1%
18,CC(C)(C)c1ccc(Oc2cccc(C=C3C(=O)Nc4ccc(I)cc43)c2)cc1 [10737/B10],84.7%
19,O=C1Nc2ccc(S(=O)(=O)N3CCOCC3)cc2C1=Cc1ccc(Oc2ccccc2)cc1 [10737/F09],76.5%
20,Cc1c(Br)ccc2c1C(=Cc1cccc(F)c1F)C(=O)N2 [10737/C05],81.8%
21,O=C1Nc2ccc(I)cc2C1=Cc1cccc(Oc2cccc(C(F)(F)F)c2)c1 [10737/B11],78.8%
22,CCOc1ccc(C=C2C(=O)Nc3c(Br)cc(Br)cc32)cc1 [10737/A02],53.2%
23,CCOc1ccc(C=C2C(=O)Nc3ccc(S(=O)(=O)Nc4ccc(C(F)(F)F)cc4)cc32)cc1 [10737/E02],53.0%
24,Cc1ccc(C)c(C=C2C(=O)Nc3c(Br)cc(Br)cc32)c1 [10737/A07],30.1%
25,Cc1ccc(C=C2C(=O)Nc3ccc(CCCl)cc32)c(C)c1 [10737/G03],37.4%
